Data published in PubChem BioAssay AID248 (DTP/NCI, 2004).
Values joined by “and” are separate entries in the source; they are usually repeats but may differ in a detail not shown here. Equal entries are not always repeated. Inconclusive results and toxic doses are left out. No stated cut-off is given here; in the data, active means T/C of 150% or more; inactive means T/C below 125%.

Test system: L1210 leukemia ip in BDF1 mice, survival T/C
Assay: NCI In Vivo Anticancer Drug Screen. Data for tumor model L1210 Leukemia (intraperitoneal) in B6D2F1 (BDF1) mice
Details: endpoint: mean survival time, higher = longer survival
Procedure, shortened: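 Each compound was tested against a transplantable tumor grown in mice. The endpoint was survival, with treated animals benchmarked against vehicle controls as a simple ratio.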

[1] = dose: 100.0 mg/kg/injection, schedule: Q01DX001 (ip), vehicle: saline
[2] = dose: 200.0 mg/kg/injection, schedule: Q01DX001 (ip), vehicle: saline
[3] = dose: 400.0 mg/kg/injection, schedule: Q01DX001 (ip), vehicle: saline
[4] = dose: 75.0 mg/kg/injection, schedule: Q01DX001 (ip), vehicle: other
[5] = dose: 150.0 mg/kg/injection, schedule: Q01DX001 (ip), vehicle: other
[6] = dose: 100.0 mg/kg/injection, schedule: Q01DX009 (ip), vehicle: saline with Tween-80
[7] = dose: 200.0 mg/kg/injection, schedule: Q01DX009 (ip), vehicle: saline with Tween-80
[8] = dose: 400.0 mg/kg/injection, schedule: Q01DX009 (ip), vehicle: saline with Tween-80
[9] = dose: 100.0 mg/kg/injection, schedule: Q01DX001 (ip), vehicle: saline with Tween-80
[10] = dose: 200.0 mg/kg/injection, schedule: Q01DX001 (ip), vehicle: saline with Tween-80

Measured: T/C

CCCCCCCCCCCC[N+](C)(C)C (tested in a mixture with another compound)
inactive: dose: 1.25 mg/kg/injection, schedule: Q01DX015 (ip), vehicle: saline 101 % of control | dose: 2.5 mg/kg/injection, schedule: Q01DX015 (ip), vehicle: saline 95 % of control | dose: 3.12 mg/kg/injection, schedule: Q01DX009 (ip), vehicle: saline 92 % of control | dose: 3.12 mg/kg/injection, schedule: Q04DX003 (ip), vehicle: saline 98 % of control | dose: 5.0 mg/kg/injection, schedule: Q01DX015 (ip), vehicle: saline 101 % of control | dose: 5.0 mg/kg/injection, schedule: Q04DX003 (ip), vehicle: saline 107 % of control | dose: 6.25 mg/kg/injection, schedule: Q01DX009 (ip), vehicle: saline 94 % of control | dose: 6.25 mg/kg/injection, schedule: Q04DX003 (ip), vehicle: saline 98 % of control | dose: 10.0 mg/kg/injection, schedule: Q01DX015 (ip), vehicle: saline 98 % of control | dose: 10.0 mg/kg/injection, schedule: Q04DX003 (ip), vehicle: saline 112 % of control | dose: 12.5 mg/kg/injection, schedule: Q01DX009 (ip), vehicle: saline 105 % of control | dose: 12.5 mg/kg/injection, schedule: Q04DX003 (ip), vehicle: saline 95 % of control | dose: 18.0 mg/kg/injection, schedule: Q01DX009 (ip), vehicle: saline 90 % of control | dose: 20.0 mg/kg/injection, schedule: Q01DX015 (ip), vehicle: saline 98 % of control | dose: 20.0 mg/kg/injection, schedule: Q04DX003 (ip), vehicle: saline 93 % of control | dose: 37.5 mg/kg/injection, schedule: Q01DX001 (ip), vehicle: saline 101 % of control | dose: 40.0 mg/kg/injection, schedule: Q01DX015 (ip), vehicle: saline 100 % of control | dose: 40.0 mg/kg/injection, schedule: Q04DX003 (ip), vehicle: Klucel (hydroxypropylcellulose) (HPC) 90 % of control

CC(=O)c1ccc[n+](Cc2ccc([N+](=O)[O-])cc2)c1
inactive: dose: 100.0 mg/kg/injection, schedule: Q04DX003 (ip), vehicle: saline sonified 98 % of control

CC1C(=O)OC2CC[N+]3([O-])CC=C(COC(=O)C(C)(O)C1(C)O)C23 (configuration not stated)
inactive: [1] 96 % of control | [2] 96 % of control | [3] 102 % of control

CC(C)(C)OC(=O)C1OC1(C)c1ccccc1 (configuration not stated)
inactive: [4] 106 % of control | [5] 107 % of control | dose: 300.0 mg/kg/injection, schedule: Q01DX001 (ip), vehicle: other 98 % of control

CCCCSc1n[nH]c(=O)nc1N
inactive: [1] 93 % of control | [2] 96 % of control | [3] 98 % of control

COc1ccc2[nH]c(=O)ccc2c1
inactive: dose: 300.0 mg/kg/injection, schedule: Q01DX001 (ip), vehicle: Klucel (hydroxypropylcellulose) (HPC) 98 % of control

Cc1ccc2c(c1)SCc1c-2[nH]c2ccccc12
inactive: dose: 100.0 mg/kg/injection, schedule: Q04DX003 (ip), vehicle: saline with Tween-80 103 % of control | dose: 200.0 mg/kg/injection, schedule: Q04DX003 (ip), vehicle: saline with Tween-80 100 % of control | dose: 400.0 mg/kg/injection, schedule: Q04DX003 (ip), vehicle: saline with Tween-80 108 % of control

Cc1ccc(S(=O)(=O)N/N=C2\C(=O)C3CCC2C3Cl)cc1 (configuration not stated)
inactive: [4] 89 % of control | [5] 92 % of control

CC(=O)OC1C=CS(=O)(=O)C1 (configuration not stated)
inactive: [6] 94 % of control | [7] 103 % of control | [8] 96 % of control

O=C1C=CC(CCCCCn2ccc(=O)[nH]c2=O)C(=O)N1 (configuration not stated)
inactive: dose: 100.0 mg/kg/injection, schedule: Q04DX003 (ip), vehicle: saline 105 % of control | dose: 200.0 mg/kg/injection, schedule: Q04DX003 (ip), vehicle: saline 96 % of control | dose: 400.0 mg/kg/injection, schedule: Q04DX003 (ip), vehicle: saline 97 % of control

Cc1ccc(S(=O)(=O)NCCC(Cl)(Cl)Cl)cc1
inactive: dose: 100.0 mg/kg/injection, schedule: Q04DX003 (ip), vehicle: Klucel (hydroxypropylcellulose) (HPC) 104 % of control | dose: 200.0 mg/kg/injection, schedule: Q04DX003 (ip), vehicle: Klucel (hydroxypropylcellulose) (HPC) 101 % of control | dose: 400.0 mg/kg/injection, schedule: Q04DX003 (ip), vehicle: Klucel (hydroxypropylcellulose) (HPC) 98 % of control

COC(=O)[C@@]12OC[C@]34[C@H]([C@@H](O)[C@@H]1O)[C@@]1(C)[C@H](O)C(=O)C=C(C)[C@@H]1C[C@H]3OC(=O)C(OC(C)=O)[C@@H]24 (some centres not stated)
inactive: dose: 125.0 micrograms/kg/injection, schedule: Q01DX009 (ip), vehicle: saline + alcohol 104 % of control | dose: 250.0 micrograms/kg/injection, schedule: Q01DX009 (ip), vehicle: saline + alcohol 105 % of control | dose: 500.0 micrograms/kg/injection, schedule: Q01DX009 (ip), vehicle: saline + alcohol 96 % of control | dose: 1000.0 micrograms/kg/injection, schedule: Q01DX009 (ip), vehicle: saline + alcohol 102 % of control | dose: 2000.0 micrograms/kg/injection, schedule: Q01DX009 (ip), vehicle: saline + alcohol 104 % of control

COc1ccc(/C=N/NC(=O)Nc2ccccc2)cc1OC
inactive: dose: 100.0 mg/kg/injection, schedule: Q01DX009 (ip), vehicle: Klucel (hydroxypropylcellulose) (HPC) 98 % of control | dose: 200.0 mg/kg/injection, schedule: Q01DX009 (ip), vehicle: Klucel (hydroxypropylcellulose) (HPC) 89 % of control | dose: 400.0 mg/kg/injection, schedule: Q01DX009 (ip), vehicle: Klucel (hydroxypropylcellulose) (HPC) 93 % of control

CC(C)N(/N=N/c1[nH]ncc1C(N)=O)C(C)C
inactive: [9] 104 % of control | [6] 108 % of control | [10] 104 % of control | [7] 98 % of control | dose: 400.0 mg/kg/injection, schedule: Q01DX001 (ip), vehicle: saline with Tween-80 93 % of control | [8] 95 % of control

OC(c1ccc(F)cc1)(c1ccc(F)cc1)C1CC1
inactive: [9] 106 % of control | [10] 105 % of control

Cc1cc(O)c2c(c1)OC(C)(C)C1=C2CC(C)CC1 (configuration not stated)
inactive: dose: 75.0 mg/kg/injection, schedule: Q01DX009 (ip), vehicle: Klucel (hydroxypropylcellulose) (HPC) 96 % of control | dose: 150.0 mg/kg/injection, schedule: Q01DX009 (ip), vehicle: Klucel (hydroxypropylcellulose) (HPC) 92 % of control | dose: 300.0 mg/kg/injection, schedule: Q01DX009 (ip), vehicle: Klucel (hydroxypropylcellulose) (HPC) 101 % of control

CCCCCCCCCC(C)CCCCC (configuration not stated)
inactive: dose: 25.0 mg/kg/injection, schedule: Q01DX001 (ip), vehicle: saline with Tween-80 93 % of control | dose: 50.0 mg/kg/injection, schedule: Q01DX001 (ip), vehicle: saline with Tween-80 98 % of control | [9] 95 % of control and 97 % of control | [10] 98 % of control

c1ccc(-c2ccccc2NC2=NCCO2)cc1
inactive: dose: 12.5 mg/kg/injection, schedule: Q01DX009 (ip), vehicle: saline with Tween-80 100 % of control | dose: 25.0 mg/kg/injection, schedule: Q01DX009 (ip), vehicle: saline with Tween-80 94 % of control | dose: 50.0 mg/kg/injection, schedule: Q01DX009 (ip), vehicle: saline with Tween-80 94 % of control

O=c1ccn(CCCOc2ccccc2)c(=O)[nH]1
inactive: dose: 25.0 mg/kg/injection, schedule: Q04DX002 (ip), vehicle: Klucel (hydroxypropylcellulose) (HPC) 102 % of control | dose: 50.0 mg/kg/injection, schedule: Q04DX002 (ip), vehicle: Klucel (hydroxypropylcellulose) (HPC) 102 % of control | dose: 100.0 mg/kg/injection, schedule: Q04DX002 (ip), vehicle: Klucel (hydroxypropylcellulose) (HPC) 106 % of control
